Experimental data taken from patent publication US11530237B2, “Compositions and methods for treating CNS disorders” (Sage Therapeutics, Inc., priority 2014, dated 2022).

Target: [35S]-TBPS binding, rat brain cortical membranes
Assay: Steroid inhibition of TBPS binding ([35S]-TBPS radioligand displacement)
Settings: 3 nM [35S]-TBPS, 5 μM GABA
Procedure: TBPS binding assays using rat brain cortical membranes in the presence of 5 μM GABA has been described (Gee et al, J. Pharmacol. Exp. Then 1987, 241, 346-353; Hawkinson et al, Mol. Pharmacol. 1994, 46, 977-985; Lewin, A. H et al., Mol. Pharmacol. 1989, 35, 189-194).
Briefly, cortices are rapidly removed following decapitation of carbon dioxide-anesthetized Sprague-Dawley rats (200-250 g). The cortices are homogenized in 10 volumes of […] using a glass/teflon homogenizer and centrifuged at 1500×g for 10 min at 4° C. The resultant supernatants are centrifuged at 10,000×g for 20 min at 4° C. to obtain the P2 pellets. The P2 pellets are resuspended in 200 mM NaCl/50 mM Na—K phosphate pH 7.4 buffer and centrifuged at 10,000×g for 10 min at 4° C. This washing procedure is repeated twice and the pellets are resuspended in 10 volumes of buffer. Aliquots (100 μL) of the membrane suspensions are incubated with 3 nM [^35S]-TBPS and 5 μL aliquots of test drug dissolved in dimethyl sulfoxide (DMSO) (final 0.5%) in the presence of 5 μM GABA. The incubation is brought to a final volume of 1.0 mL with buffer. […] Following a 90 min incubation at room temp, the assays are terminated by filtration through glass fiber filters (Schleicher and Schuell No. 32) using a cell harvester (Braudel) and rinsed three times with ice-cold buffer. Filter bound radioactivity is measured by liquid scintillation spectrometry. Non-linear curve fitting of the overall data for each drug averaged for each concentration is done using Prism (GraphPad).
Various compounds are or can be screened to determine their potential as modulators of [^35S]-TBPS binding in vitro. These assays are or can be performed in accordance with the above discussed procedures.

SMILES	IC50
C[C@H](C(=O)[C@H]1CC[C@H]2[C@@H]3CC[C@@H]4C[C@](C)(O)CC[C@]4(C)[C@H]3CC[C@]12C)n1nnc2ccccc21 [Compound 62, (R)-2-(1H-benzo[d][1,2,3]triazol-1-yl)-1-((3R,5R,8R,9S,10S,13S,14S,17S)-3-hydroxy-3,10,13-trimethylhexadecahydro-1H-cyclopenta[a]phenanthren-17-yl)propan-1-one]	0.1 to 0.5 µM
C[C@@]1(O)CC[C@@]2(C)[C@@H](CC[C@@H]3[C@@H]2CC[C@]2(C)[C@@H](C(=O)Cn4nc5ccc(F)cc5n4)CC[C@@H]32)C1 [Compound 245]	0.01 to 0.05 µM
CN(C)C(=O)c1cnn(CC(=O)[C@H]2CC[C@H]3[C@@H]4CC[C@@H]5C[C@](C)(O)CC[C@]5(C)[C@H]4CC[C@]23C)c1 [Compound 86]	< 0.01 µM
C[C@@H](C(=O)[C@H]1CC[C@H]2[C@@H]3CC[C@H]4C[C@](C)(O)CC[C@]4(C)[C@H]3CC[C@]12C)n1ccnn1 [Compound 93, (S)-1-((3R,5S,8R,9S,10S,13S,14S,17S)-3-hydroxy-3,10,13-trimethylhexadecahydro-1H-cyclopenta[a]phenanthren-17-yl)-2-(1H-1,2,3-triazol-1-yl)propan-1-one]	0.1 to 0.5 µM
CC(C(=O)[C@H]1CC[C@H]2[C@@H]3CC[C@@H]4C[C@](C)(O)CC[C@]4(C)[C@H]3CC[C@]12C)n1ccnn1 (stereo in doubt) [Compound 58, (R)-1-((3R,5R,8R,9S,10S,13S,14S,17S)-3-hydroxy-3,10,13-trimethylhexadecahydro-1H-cyclopenta[a]phenanthren-17-yl)-2-(1H-1,2,3-triazol-1-yl)propan-1-one]	> 0.5 µM
C[C@@]1(O)CC[C@@]2(C)[C@@H](CC[C@@H]3[C@@H]2CC[C@]2(C)[C@@H](C(=O)Cn4cc5ccc(F)cc5n4)CC[C@@H]32)C1 [Compound 237]	0.01 to 0.05 µM
C[C@@H](C(=O)[C@H]1CC[C@H]2[C@@H]3CC[C@@H]4C[C@](C)(O)CC[C@]4(C)[C@H]3CC[C@]12C)n1cc(C#N)cn1 [Compound 73, 1-((S)-1-((3R,5R,8R,9S,10S,13S,14S,17S)-3-hydroxy-3,10,13-trimethylhexadecahydro-1H-cyclopenta[a]phenanthren-17-yl)-1-oxopropan-2-yl)-1H-pyrazole-4-carbonitrile]	0.01 to 0.05 µM
C[C@@]1(O)CC[C@@]2(C)[C@@H](CC[C@@H]3[C@@H]2CC[C@]2(C)[C@@H](C(=O)Cn4ncc5ccc(F)cc54)CC[C@@H]32)C1 [Compound 238]	0.05 to 0.1 µM
C[C@@H](C(=O)[C@H]1CC[C@H]2[C@@H]3CC[C@H]4C[C@](C)(O)CC[C@]4(C)[C@H]3CC[C@]12C)n1nc2ccccc2n1 [Compound 99, (S)-2-(2H-benzo[d][1,2,3]triazol-2-yl)-1-((3R,5S,8R,9S,10S,13S,14S,17S)-3-hydroxy-3,10,13-trimethylhexadecahydro-1H-cyclopenta[a]phenanthren-17-yl)propan-1-one]	0.01 to 0.05 µM
C[C@@]1(O)CC[C@@]2(C)[C@H](CC[C@@H]3[C@@H]2CC[C@]2(C)[C@@H](C(=O)Cn4cc(C#N)cn4)CC[C@@H]32)C1 [Compound 10, 1-(2-((3R,5R,8R,9S,10S,13S,14S,17S)-3-hydroxy-3,10,13-trimethylhexadecahydro-1H-cyclopenta[a]phenanthren-17-yl)-2-oxoethyl)-1H-pyrazole-4-carbonitrile]	< 0.01 µM
C[C@@]1(O)CC[C@@]2(C)[C@H](CC[C@@H]3[C@@H]2CC[C@]2(C)[C@@H](C(=O)CN4CCOCC4)CC[C@@H]32)C1 [Compound 43, 1-((3R,5R,8R,9S,10S,13S,14S,17S)-3-hydroxy-3,10,13-trimethylhexadecahydro-1H-cyclopenta[a]phenanthren-17-yl)-2-morpholinoethanone]	0.1 to 0.5 µM
C[C@@]1(O)CC[C@@]2(C)C(CC[C@H]3[C@@H]4CC[C@H](C(=O)Cn5nc6ccc(S(C)(=O)=O)cc6n5)[C@@]4(C)CC[C@@H]32)C1 (stereo in doubt) [Compound 104, 1-((3R,5R,8R,9S,10S,13S,14S,17S)-3-hydroxy-3,10,13-trimethylhexadecahydro-1H-cyclopenta[a]phenanthren-17-yl)-2-(5-(methylsulfonyl)-2H-benzo[d][1,2,3]triazol-2-yl)ethanone]	< 0.01 µM
CC(C(=O)[C@H]1CC[C@H]2[C@@H]3CC[C@@H]4C[C@](C)(O)CC[C@]4(C)[C@H]3CC[C@]12C)n1nccn1 (stereo in doubt) [Compound 56, (R)-1-((3R,5R,8R,9S,10S,13S,14S,17S)-3-hydroxyl-3,10,13-trimethylhexadecahydro-1H-cyclopenta[a]phenanthren-17-yl)-2-(2H-1,2,3-triazol-2-yl)propan-1-one]	0.05 to 0.1 µM
C[C@@H](C(=O)[C@H]1CC[C@H]2[C@@H]3CC[C@@H]4C[C@](C)(O)CC[C@]4(C)[C@H]3CC[C@]12C)n1nccn1 [Compound 57, (S)-1-((3R,5R,8R,9S,10S,13S,14S,17S)-3-hydroxy-3,10,13-trimethylhexadecahydro-1H-cyclopenta[a]phenanthren-17-yl)-2-(2H-1,2,3-triazol-2-yl)propan-1-one]	0.1 to 0.5 µM
C[C@@H](C(=O)[C@H]1CC[C@H]2[C@@H]3CC[C@H]4C[C@](C)(O)CC[C@]4(C)[C@H]3CC[C@]12C)n1cc(C#N)cn1 [Compound 81, 1-((S)-1-((3R,5S,8R,9S,10S,13S,14S,17S)-3-hydroxy-3,10,13-trimethylhexadecahydro-1H-cyclopenta[a]phenanthren-17-yl)-1-oxopropan-2-yl)-1H-pyrazole-4-carbonitrile]	0.01 to 0.05 µM
C[C@@H](C(=O)[C@H]1CC[C@H]2[C@@H]3CC[C@H]4C[C@](C)(O)CC[C@]4(C)[C@H]3CC[C@]12C)n1nnc2ccccc21 [Compound 101, (S)-2-(1H-benzo[d][1,2,3]triazol-1-yl)-1-((3R,5S,8R,9S,10S,13S,14S,17S)-3-hydroxy-3,10,13-trimethylhexadecahydro-1H-cyclopenta[a]phenanthren-17-yl)propan-1-one]	0.05 to 0.1 µM
CC(C(=O)[C@H]1CC[C@H]2[C@@H]3CC[C@@H]4C[C@](C)(O)CC[C@]4(C)[C@H]3CC[C@]12C)n1nnc2ccccc21 (stereo in doubt) [Compound 63, (S)-2-(1H-benzo[d][1,2,3]triazol-1-yl)-1-((3R,5R,8R,9S,10S,13S,14S,17S)-3-hydroxy-3,10,13-trimethylhexadecahydro-1H-cyclopenta[a]phenanthren-17-yl)propan-1-one]	0.01 to 0.05 µM
C[C@H](C(=O)[C@H]1CC[C@H]2[C@@H]3CC[C@@H]4C[C@](C)(O)CC[C@]4(C)[C@H]3CC[C@]12C)n1cc(C#N)cn1 [Compound 72, 1-((R)-1-((3R,5R, 8R, 9S, 10S, 13S, 14S, 17S)-3-hydroxy-3,10,13-trimethylhexadecahydro-1H-cyclopenta[a]phenanthren-17-yl)-1-oxopropan-2-yl)-1H-pyrazole-4-carbonitrile]	0.01 to 0.05 µM
CSc1ccc2nnn(CC(=O)[C@H]3CC[C@H]4[C@@H]5CC[C@H]6C[C@](C)(O)CC[C@]6(C)[C@H]5CC[C@]34C)c2c1 [Compound 248]	< 0.01 µM
C[C@H](C(=O)[C@H]1CC[C@H]2[C@@H]3CC[C@H]4C[C@](C)(O)CC[C@]4(C)[C@H]3CC[C@]12C)n1nccn1 [Compound 90, (R)-1-((3R,5S,8R,9S,10S,13S,14S,17S)-3-hydroxy-3,10,13-trimethylhexadecahydro-1H-cyclopenta[a]phenanthren-17-yl)-2-(2H-1,2,3-triazol-2-yl)propan-1-one]	> 0.5 µM
C[C@@]1(O)CC[C@@]2(C)[C@@H](CC[C@@H]3[C@@H]2CC[C@]2(C)[C@@H](C(=O)Cc4cccc(F)c4)CC[C@@H]32)C1 [Compound 257]	0.1 to 0.5 µM
C[C@@]1(O)CC[C@@]2(C)[C@@H](CC[C@@H]3[C@@H]2CC[C@]2(C)[C@@H](C(=O)Cn4cc5cc(F)ccc5n4)CC[C@@H]32)C1 [Compound 239]	0.01 to 0.05 µM
C[C@H](C(=O)[C@H]1CC[C@H]2[C@@H]3CC[C@H]4C[C@](C)(O)CC[C@]4(C)[C@H]3CC[C@]12C)n1nnc2ccccc21 [Compound 100, (R)-2-(1H-benzo[d][1,2,3]triazol-1-yl)-1-((3R,5S,8R,9S,10S,13S,14S,17S)-3-hydroxy-3,10,13-trimethylhexadecahydro-1H-cyclopenta[a]phenanthren-17-yl)propan-1-one]	> 0.5 µM
C[C@@H](C(=O)[C@H]1CC[C@H]2[C@@H]3CC[C@H]4C[C@](C)(O)CC[C@]4(C)[C@H]3CC[C@]12C)n1nccn1 [Compound 91, (S)-1-((3R,5S,8R,9S,10S,13S,14S,17S)-3-hydroxy-3,10,13-trimethylhexadecahydro-1H-cyclopenta[a]phenanthren-17-yl)-2-(2H-1,2,3-triazol-2-yl)propan-1-one]	0.05 to 0.1 µM
